Reference: US8685986B2, “Medical composition for treatment or prophylaxis of glaucoma” (Ube Industries, Ltd., priority 2009, dated 2014)
Structures can show the parent of a compound that is named as a salt. Where two headings read alike, the source gives them in different places.

Key:
human EP2 receptor [1] = biological target: T1, human EP2 receptor (Homo sapiens (Human), UniProt P43116); assay: Measurement of EP2 receptor binding affinity ([3H]PGE2 displacement, membrane fraction of HEK293 cells)
Experimental: Measurement of EP2 receptor binding affinity was carried out according to the method of Abramovitz et al. (Biochimica et Biophysica Acta, 1483, 285 (2000)). […] The membrane fraction was recovered on glass fiber filter paper (GF/B, available from Whatman PLC) using a cell harvester (M30R, available from Brandel Inc.), and after washing with a buffer solution (10 mM MES-KOH (pH 6.0), 10 mM MgCl2), radioactivity was measured with a liquid scintillation analyzer (2000CA, available from Packard). […] The dissociation constant (Kd value) was calculated by Scatchard analysis.

human EP2 receptor [2] = biological target: T1, human EP2 receptor; assay: Measurement of EP2 agonist activity (cAMP amount in HEK 293 cells); assay type: cell-based; conditions: cAMP increase in HEK 293 cells expressing human EP2 receptor, 30 minutes
Experimental: Measurement of EP2 agonist activity was carried out according to the method of Wilson et al. (European Journal of Pharmacology, 501, 49 (2004)). HEK 293 cells (ES-562-C, available from Euroscreen S.A.) expressed human EP2 receptor were cultured in a MEM medium containing 10% FBS and seeded at 2×10^4 cells per each well of a 96-well plate. On the next day, the medium was replaced with serum-free MEM medium containing 3-isobutyl-1-methylxanthine (final concentration: 500 μM) and after culturing for 30 minutes, a test compound dissolved in dimethylsulfoxide was added followed by allowing to stand undisturbed in a carbon dioxide gas incubator. After 30 minutes, an amount of cAMP in the cells was measured with a cAMP Biotrak EIA System kit (available from GE Healthcare Bioscience).

human EP3 receptor = human EP3 receptor (Homo sapiens (Human), UniProt P43115); assay: Measurement of EP3 receptor binding affinity ([3H]PGE2 displacement, membrane fraction of Chem-1 cells)
Experimental: (§1) With regard to EP3 and EP4 receptors, measurements of receptor binding affinity were carried out according to the following methods in the same manner as in Test example 1.
(§2) The membrane fraction was recovered on glass fiber filter paper (GF/B, available from Whatman PLC) pretreated with 0.3% polyethyleneimine by using a cell harvester (M30R, available from Brandel Inc.), and after washing with a buffer solution (50 mM Tris-HCl (pH 7.4)), radioactivity was measured with a liquid scintillation analyzer (2000CA, available from Packard). […] The dissociation constant (Kd value) was calculated by Scatchard analysis.

human EP4 receptor = human EP4 receptor (Homo sapiens (Human), UniProt P35408); assay: Measurement of EP4 receptor binding affinity ([3H]PGE2 displacement, membrane fraction of Chem-1 cells)
Experimental: as §1
as §2, with “HEPES-NaOH” for “Tris-HCl”, “7.4), 500 mM NaCl, 0.1% BSA),” for “7.4)),”

Chain of human EP4 receptor (P35408 whole entry): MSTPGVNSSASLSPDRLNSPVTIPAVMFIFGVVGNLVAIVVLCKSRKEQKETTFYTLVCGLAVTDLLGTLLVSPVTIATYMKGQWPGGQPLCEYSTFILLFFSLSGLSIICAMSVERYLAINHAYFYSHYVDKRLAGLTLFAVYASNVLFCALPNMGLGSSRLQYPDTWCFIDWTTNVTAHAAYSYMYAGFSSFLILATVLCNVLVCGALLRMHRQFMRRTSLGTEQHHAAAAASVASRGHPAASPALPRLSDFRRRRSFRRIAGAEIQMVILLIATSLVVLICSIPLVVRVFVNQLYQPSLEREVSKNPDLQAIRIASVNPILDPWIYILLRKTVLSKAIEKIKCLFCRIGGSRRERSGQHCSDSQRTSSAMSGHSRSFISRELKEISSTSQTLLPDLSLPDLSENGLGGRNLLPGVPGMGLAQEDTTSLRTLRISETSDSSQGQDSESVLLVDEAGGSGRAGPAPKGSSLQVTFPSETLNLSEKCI
T1 sequence (P43116 whole entry): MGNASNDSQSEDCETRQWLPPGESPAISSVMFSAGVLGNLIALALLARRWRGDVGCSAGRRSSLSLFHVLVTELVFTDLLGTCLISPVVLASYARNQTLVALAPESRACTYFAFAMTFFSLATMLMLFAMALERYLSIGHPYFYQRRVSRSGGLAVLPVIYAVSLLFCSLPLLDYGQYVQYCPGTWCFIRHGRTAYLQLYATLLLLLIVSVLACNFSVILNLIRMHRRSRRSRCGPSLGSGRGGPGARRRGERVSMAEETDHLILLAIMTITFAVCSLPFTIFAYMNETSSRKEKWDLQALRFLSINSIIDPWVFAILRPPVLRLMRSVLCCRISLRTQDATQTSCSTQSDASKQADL
Chain of human EP3 receptor (P43115 whole entry): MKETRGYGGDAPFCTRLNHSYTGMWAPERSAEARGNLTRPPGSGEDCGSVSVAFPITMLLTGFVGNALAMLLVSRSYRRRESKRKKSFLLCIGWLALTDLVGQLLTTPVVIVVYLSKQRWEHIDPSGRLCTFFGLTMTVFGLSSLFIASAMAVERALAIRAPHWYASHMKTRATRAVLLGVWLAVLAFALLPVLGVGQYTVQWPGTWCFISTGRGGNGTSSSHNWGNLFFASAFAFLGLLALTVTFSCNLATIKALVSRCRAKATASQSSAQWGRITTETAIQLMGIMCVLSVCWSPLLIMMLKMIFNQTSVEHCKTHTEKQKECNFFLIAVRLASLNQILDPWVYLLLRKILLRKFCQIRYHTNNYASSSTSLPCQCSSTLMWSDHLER

| Ki (human EP2 receptor [1]; PGE2 receptor selectivity, Table 4, read-out: EP2 receptor binding affinity Ki value) | Ki (human EP2 receptor [1]; [3H]PGE2 10 nM, HEK293 membrane fraction, Table 2, read-out: Ki value of EP2 receptor binding affinity) | EC50 (human EP2 receptor [2]) | Ki (human EP3 receptor; [3H]PGE2 2 nM, Chem-1 membrane fraction, Table 4) | Ki (human EP4 receptor; [3H]PGE2 1 nM, Chem-1 membrane fraction, Table 4) | Ki (human EP2 receptor [1]; read-out: Ki value of EP2 receptor binding affinity) | Ki (human EP3 receptor) | Ki (human EP4 receptor) | Structure (SMILES) |
| --- | --- | --- | --- | --- | --- | --- | --- | --- |
| 1.9 nM | 1.9 nM | 0.45 nM | > 10000 nM | 4800 nM |  |  |  | O=C(O)CNc1cccc(CN(Cc2ccc(-c3nccs3)cc2)S(=O)(=O)c2ccccn2)n1 [Example 3] |
|  |  | 0.29 nM |  |  | 2.8 nM | > 10000 nM | 2900 nM | O=C(O)CNc1cccc(CN(Cc2ccc(-c3nccs3)cc2)S(=O)(=O)c2ccc(F)cc2)n1 [Example 4, (6-{(4-Fluorobenzenesulfonyl)[4-(thiazol-2-yl)benzyl]aminomethyl}pyridin-2-ylamino)acetic Acid] |
|  |  |  |  |  |  | > 10000 nM | 2800 nM | O=C(O)CNc1cccc(CN(Cc2ccc(-c3nccs3)cc2)S(=O)(=O)c2cccnc2)n1 [Example 11, (6-{(Pyridin-3-ylsulfonyl)[4-(thiazol-2-yl)benzyl]aminomethyl}pyridin-2-ylamino)acetic Acid Trifluoroacetate] |
